The target of one experiment is T1, 5-HT1AR (Rattus norvegicus, UniProt P19327).
T1 construct: from tissue; hippocampus per the main-text methods
T1 sequence (P19327 1-422): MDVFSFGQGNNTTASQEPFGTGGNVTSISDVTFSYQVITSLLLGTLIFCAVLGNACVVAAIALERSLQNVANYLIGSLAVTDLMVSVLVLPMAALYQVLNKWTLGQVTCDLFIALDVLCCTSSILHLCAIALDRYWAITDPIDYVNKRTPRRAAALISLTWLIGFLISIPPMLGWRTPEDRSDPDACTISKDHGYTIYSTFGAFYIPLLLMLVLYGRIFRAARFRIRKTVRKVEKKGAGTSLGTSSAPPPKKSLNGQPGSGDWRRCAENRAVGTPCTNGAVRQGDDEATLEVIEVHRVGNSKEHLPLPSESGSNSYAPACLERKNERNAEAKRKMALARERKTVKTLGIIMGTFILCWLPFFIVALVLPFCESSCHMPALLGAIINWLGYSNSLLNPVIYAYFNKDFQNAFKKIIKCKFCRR
The experiment can be described thus: [35S]GTPγS functional 5-HT1A assay in rat hippocampal membranes. The format is biochemical. As to conditions: for agonist classification by Emax vs serotonin: [35S]GTPγS binding, partial = half (or lower) as efficacious as serotonin; for Emax: basal 5-HT1AR activation set to 100%, read-out: 5-HT1A Emax (%) ± SEM; for eudismic ratio (EC50S/R): S vs R optical isomer. Here is the method: (§1) Male Sprague–Dawley rats were decapitated and their brains removed and placed on ice. The hippocampi (for the functional 5-HT1A receptor assay) or frontal cortexes (for the competitive 5-HT2A and 5-HT2C receptor assays) were dissected and homogenized with a glass homogenizer in 30 vol. ice-cold TED buffer (50 mMTris-HCl, 1 mM EDTA, 1 mM dithiotheritol, pH 7.4). Next, the homogenate was centrifuged at 21 000g for 30 min at 4 °C. The pellet was suspended in 30 vol TED buffer (pH 7.4) and incubated in a water bath for 10 min at 37 °C to remove endogenous ligands. The suspension was centrifuged again at 21 000g for 30 min at 4 °C. The pellet was resuspended in 30 vol TED buffer (pH 7.4) and the centrifugation step was repeated. The final pellet was suspended in 10 vol 50 mM Tris-HCl (pH 7.4) and stored at −80 °C until use.[47]
The [^35S]GTPγS assay was performed according to the method described previously.[49] […] Nonspecific binding was determined with 100 μM of unlabeled GTPγS. The reaction mixture was incubated for 90 min at 36 °C in a volume of 250 μL. […] Next, 96-well Unifilter Plates (PerkinElmer, USA) were presoaked for 1 h with 50 mM Tris-HCl (pH = 7.4) before harvesting. The reaction was terminated by vacuum filtration onto filter plates with the Filter Mate Harvester (PerkinElmer, USA). The samples were then rapidly washed with 2 mL of 50 mM Tris-HCl (pH = 7.4) buffer. The filter plates were dried for 2 h at 50 °C. After drying, 45 μL of EcoScint-20 scintillant (PerkinElmer, USA) was added to every well. The radioactivity was counted in a Trilux MicroBeta^2 counter (PerkinElmer, USA). The data were analyzed with GraphPad Prism 5.0 software (GraphPad Software, San Diego California USA, www.graphpad.com). To determine whether compound-stimulated [^35S]GTPγS binding involved 5-HT1A receptors, two protocols were used.
The curves were fitted with a one-site nonlinear regression model. Efficacy (Emax) and potency (pEC50) were calculated from […] from three separate experiments and expressed as the means ± SEM. […] The differences in compound potency and efficacy were evaluated with one-way ANOVA followed by the Bonferroni’s post-hoc test. The baseline G-protein stimulation was set at 100%. One, two, or three symbols represent statistical significance of 0.05, 0.01, and 0.001, respectively.
In general terms: GTPγS is a poorly hydrolysed GTP analogue; its binding reports G protein activation.

Another experiment concerns the target T2, human 5-HT7b (Homo sapiens, UniProt P34969).
T2 construct: expressed in transfected cells
Briefly: Radioligand binding at 5-HT7 in transfected HEK293 cells. The note with it: for selectivity 5-HT7/5-HT1A: Antilog [pKi (5-HT1AR) – pKi (5-HT7R)]; for Ki: transfected HEK293 cells, [3H]-5-CT, read-out: 5-HT7 pKi ± SEM (converted).

For the next experiment, the target named is T3, 5-HT2CR (Rattus norvegicus, UniProt P08909).
T3 construct: from tissue; host or cells: frontal cortex of male Sprague-Dawley rats
T3 sequence (P08909 33-460): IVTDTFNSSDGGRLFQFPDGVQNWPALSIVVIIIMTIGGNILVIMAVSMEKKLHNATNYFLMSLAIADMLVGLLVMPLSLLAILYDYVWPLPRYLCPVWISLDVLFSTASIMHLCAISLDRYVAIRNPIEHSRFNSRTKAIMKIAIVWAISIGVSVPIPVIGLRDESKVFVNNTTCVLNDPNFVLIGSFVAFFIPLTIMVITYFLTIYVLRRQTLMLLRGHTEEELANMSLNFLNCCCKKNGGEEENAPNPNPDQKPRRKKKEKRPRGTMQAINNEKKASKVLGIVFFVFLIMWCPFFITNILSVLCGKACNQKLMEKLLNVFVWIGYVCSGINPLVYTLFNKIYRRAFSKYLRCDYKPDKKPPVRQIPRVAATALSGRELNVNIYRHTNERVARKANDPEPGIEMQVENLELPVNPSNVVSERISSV
Briefly: Radioligand binding at 5-HT2C on rat frontal cortex membranes. The note with it: for selectivity 5-HT2/5-HT1A: Antilog [pKi (5-HT1AR) – pKi (5-HT2CR)]; for Ki: rat frontal cortex membranes, [3H]mesulergine, read-out: 5-HT2C pKi ± SEM (converted). Here is the method: as §1
The 5-HT2A assay was performed according to a previously described protocol with some modifications.[48] […] Nonspecific binding was determined in the presence of 10 μM mianserin. For the 5-HT2C assay, the frontal cortex homogenates (250 μg protein/mL) were incubated in triplicate with 1 nM [^3H]mesulergine for 60 min at 36 °C in a 50 mM Tris-HCl (pH 7.4) buffer containing 0.1% ascorbate, 10 mM MgCl2, 10 μM pargyline, 100 nM spiperone, and increasing concentrations (10^–10–10^–5 M) of the compound tested. After incubation, the reaction mixture was deposited onto UniFilter-96 GF/B plates, with the aid of a FilterMate-96 Harvester. The filter plates were presoaked with 0.4% PEI for 1 h. Next, each filter well was washed with 1.75 mL of 50 mM Tris-HCl (pH 7.4) and left to dry on a heating block set to 50 °C for 2 h. Then, 45 μL of Microscint-20 scintillation fluid was added to each filter well and left to equilibrate overnight. The filter-bound radioactivity was counted in a MicroBeta^2 Microplate Counter. Curves were fitted with a one-site sigmoidal dose–response equation and pKi for each compound was calculated with the Cheng-Pursoff equation. Results were analyzed with one-way ANOVA followed by the Bonferroni’s posthoc test. The results are expressed as means ± SEM of three independent experiments.

[1] abbreviates: rat hippocampal membranes, [35S]GTPγS, three independent experiments, read-out: 5-HT1A pEC50 ± SEM (converted).

Where two headings read alike, the source gives them in different places.

Six compounds from article PMC8016166, “Identification of a Potent and Selective 5-HT1A Receptor Agonist with In Vitro and In Vivo Antinociceptive Activity” (ACS Chemical Neuroscience, 2020) can be followed below.

The term Emax denotes the greatest response seen or fitted, relative to the assay's reference.

T2 sequence (P34969 1-432): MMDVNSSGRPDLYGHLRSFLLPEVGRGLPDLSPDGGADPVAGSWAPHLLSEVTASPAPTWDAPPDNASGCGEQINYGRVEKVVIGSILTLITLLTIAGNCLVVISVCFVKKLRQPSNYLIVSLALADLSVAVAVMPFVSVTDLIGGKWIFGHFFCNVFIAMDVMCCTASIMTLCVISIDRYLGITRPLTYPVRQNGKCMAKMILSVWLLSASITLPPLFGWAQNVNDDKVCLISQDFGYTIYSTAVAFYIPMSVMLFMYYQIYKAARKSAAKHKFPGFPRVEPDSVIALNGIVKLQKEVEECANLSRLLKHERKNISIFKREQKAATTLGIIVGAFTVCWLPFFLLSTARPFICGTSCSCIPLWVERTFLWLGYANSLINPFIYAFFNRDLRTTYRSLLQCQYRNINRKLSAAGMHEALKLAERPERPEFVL

As for `c1ccc(C2(c3ccccc3)OC[C@H](CNCCOc3ccccc3-c3ccncc3)O2)cc1` [(S)-1, N-[(2,2-Diphenyl-1,3-dioxolan-4-yl)methyl]-2-[2-(pyridin-4-yl)phenoxy]ethan-1-ammonium hydrogenoxalate], on 5-HT1AR, the “functional activity of (S)-1 compared with racemate 1” value was determined as 6 fold and the “agonist classification by Emax vs serotonin” value is recorded as “partial agonists”. Further, the EC50 on 5-HT1AR (setting [1]) was 15.8 nM. Also, the Emax at 5-HT1AR (rat hippocampal membranes) was found to be 138 ± 2.9%. Besides, on human 5-HT7b, the “selectivity 5-HT7/5-HT1A” value is 43 and the Ki is 398 nM. Also, on 5-HT2CR, the “selectivity 5-HT2/5-HT1A” value is on record as 102 and the Ki was 955 nM.

For the compound `Cn1cncc1-c1ccccc1OCCNC[C@@H]1COC(c2ccccc2)(c2ccccc2)O1` [(R)-2, N-((2,2-Diphenyl-1,3-dioxolan-4-yl)methyl)-2-(2-(1-methyl-1H-imidazol-5-yl)phenoxy)ethan-1-ammonium hydrogenoxalate], the “agonist classification by Emax vs serotonin” value at 5-HT1AR was “partial agonists”. Besides, on 5-HT1AR (setting [1]), the EC50 is 63.1 nM. Further, the maximal response (Emax) on 5-HT1AR (rat hippocampal membranes) came out at 143 ± 3.6%. At human 5-HT7b, the “selectivity 5-HT7/5-HT1A” value worked out at 66 and the Ki is 794 nM. Further, at 5-HT2CR, the “selectivity 5-HT2/5-HT1A” value is reported as 105 and the Ki was 1260 nM.

Regarding `Cn1cncc1-c1ccccc1OCCNCC1COC(c2ccccc2)(c2ccccc2)O1` (racemic) [rac-2, N-((2,2-diphenyl-1,3-dioxolan-4-yl)methyl)-2-(2-(1-methyl-1H-imidazol-5-yl)phenoxy)ethan-1-ammonium hydrogenoxalate], the “eudismic ratio (EC50S/R)” value at 5-HT1AR ([35S]GTPγS) is 2.6. Besides, on 5-HT1AR, the “agonist classification by Emax vs serotonin” value was “full agonists”. Further, the EC50 on 5-HT1AR (setting [1]) is 39.8 nM. Besides, the Emax on 5-HT1AR (rat hippocampal membranes) was determined as 184 ± 2.7%. Also, on human 5-HT7b, the “selectivity 5-HT7/5-HT1A” value is given as 89 and the Ki is 661 nM. Moreover, on 5-HT2CR, the “selectivity 5-HT2/5-HT1A” value came to 45 and the Ki was 331 nM.

As for `Cn1cncc1-c1ccccc1OCCNC[C@H]1COC(c2ccccc2)(c2ccccc2)O1` [(S)-2, N-((2,2-Diphenyl-1,3-dioxolan-4-yl)methyl)-2-(2-(1-methyl-1H-imidazol-5-yl)phenoxy)ethan-1-ammonium hydrogenoxalate], the “agonist classification by Emax vs serotonin” value at 5-HT1AR is “full agonists”. Besides, the EC50 on 5-HT1AR (setting [1]) was 25.1 nM. Further, the Emax on 5-HT1AR (rat hippocampal membranes) worked out at 175 ± 2.7%. Besides, on human 5-HT7b, the “selectivity 5-HT7/5-HT1A” value is recorded as 148 and the Ki is 603 nM. On 5-HT2CR, the “selectivity 5-HT2/5-HT1A” value is on record as 78 and the Ki was 316 nM.

Consider `c1ccc(C2(c3ccccc3)OCC(CNCCOc3ccccc3-c3ccncc3)O2)cc1` (racemic) [rac-1, N-[(2,2-diphenyl-1,3-dioxolan-4-yl)methyl]-2-[2-(pyridin-4-yl)phenoxy]ethan-1-ammonium hydrogenoxalate], for which the “eudismic ratio (EC50S/R)” value at 5-HT1AR ([35S]GTPγS) is 4.0. Besides, the “agonist classification by Emax vs serotonin” value at 5-HT1AR is “partial agonists”. In addition, at 5-HT1AR ([35S]GTPγS functional assay, read-out: EC50), the EC50 amounted to 92.1 nM. Moreover, on 5-HT1AR (rat hippocampal membranes), the maximum response (Emax) was 151 ± 4.2%. Moreover, at human 5-HT7b, the “selectivity 5-HT7/5-HT1A” value amounted to 56 and the Ki was 513 nM. Moreover, at 5-HT2CR, the “selectivity 5-HT2/5-HT1A” value came to 40 and the Ki is 363 nM.

Consider `c1ccc(C2(c3ccccc3)OC[C@@H](CNCCOc3ccccc3-c3ccncc3)O2)cc1` [(R)-1, N-[(2,2-Diphenyl-1,3-dioxolan-4-yl)methyl]-2-[2-(pyridin-4-yl)phenoxy]ethan-1-ammonium hydrogenoxalate], for which the “agonist classification by Emax vs serotonin” value on 5-HT1AR is given as “partial agonists”. Besides, on 5-HT1AR (setting [1]), the EC50 was 63.1 nM. For the same compound, the maximum response (Emax) at 5-HT1AR (rat hippocampal membranes) is 158 ± 5.9%. Moreover, on human 5-HT7b, the “selectivity 5-HT7/5-HT1A” value was 112 and the Ki is 501 nM. For the same compound, at 5-HT2CR, the “selectivity 5-HT2/5-HT1A” value is reported as 204 and the Ki is 912 nM.
